The subject of the assay is SARS-CoV-2. The assay is classed as cell-based.

Consider `COc1cccc2[nH]c(C(=O)N[C@@H](CC(C)C)C(=O)N[C@@H](C[C@@H]3CCNC3=O)C(=O)c3nc4ccccc4s3)cc12` [GRL-2420S], for which the “block of the cytopathic effect (CPE) of SARS-CoV-2” value is “significantly block the cytopathic effect”.
With `O=C(Oc1cncc(Cl)c1)c1cccc2c1CCN2` [CTRL-1720S], the “block of the cytopathic effect (CPE) of SARS-CoV-2” value is “significantly block the cytopathic effect”.

The values above are taken from patent US20230159516A1 (priority 2020, published 2023).
